Reference: patent US9616009B2, “Composition containing at least one C7 sugar for alopecia treatment, cosmetic treatment of hair and nails, and care of hair, eyelashes or nails” (LABORATOIRES EXPANSCIENCE, priority 2009, dated 2017)

Legend:
IL-8 [1] = experiment: IL-8 protein production (ELISA) in keratinocytes stressed with LPS; format: cell-based, human; conditions: keratinocytes stressed with 10 μg/ml LPS 24 h: LPS alone, or pretreated with 0.1% AV119 24 h, or with 30 μM calpain; culture supernatant
Description: (§1) We evaluated the capacity to modulate the inflammatory response of the avocado sugars obtained according to Example 1, hereafter called AV119, in human primary keratinocytes stressed with LPS (lipopolysaccharide).
(§2) The cells were pretreated with 0.1% AV119 for 24 h and successively with 10 μg/ml of LPS for 24 h. In another series of experiments, the keratinocytes were pretreated with 30 μM calpain and successively with 10 μg/ml LPS for 24 h. Calpain is a specific inhibitor of the transcription factor NFκB, a key element of the inflammatory cascade. A control of keratinocytes treated only with AV119 was prepared.
(§3) Expression of mRNA for the cytokines IL-6, IL-8, IL-1α and TNF-α was analyzed by real-time PCR and protein production and release were analyzed by ELISA in the culture supernatants. Moreover, ICAM-1 expression and production were also analyzed. Finally, IκB phosphorylation was analyzed to measure the activation of transcription factor NFκB.
(§4) A standard protocol was used for the ELISA tests (Phoenix Pharmaceuticals, Inc.).

IL-6 [2] = experiment: IL-6 protein production (ELISA) in keratinocytes stressed with LPS; format: cell-based, human; conditions: keratinocytes stressed with 10 μg/ml LPS 24 h: LPS alone, or pretreated with 0.1% AV119 24 h, or with 30 μM calpain; culture supernatant
Description: as §1, §2, §3, §4

ICAM-1 [3] = experiment: ICAM-1 protein production (ELISA) in keratinocytes stressed with LPS; format: cell-based, human; conditions: keratinocytes stressed with 10 μg/ml LPS 24 h: LPS alone, or with 1% AV119, or with 30 μM calpain
Description: as §1
as §2, with “The cells were pretreated with 0.1% AV119 for 24 h and successively with 10 μg/ml of LPS for 24 h.” left out
as §3, §4

IL-6 [4] = experiment: IL-6 gene expression (mRNA, real-time PCR) in keratinocytes stressed with LPS; format: cell-based, human; conditions: keratinocytes stressed with 10 μg/ml LPS 24 h: LPS alone, or pretreated with 0.1% AV119 24 h, or with 30 μM calpain
Description: as §1, §2, §3
(§5) Total RNA was extracted with the High Pure RNA Isolation Kit (Roche Diagnostics) according to the manufacturer's recommendations. […] The melting curve was analyzed at the end of each amplification to ensure the absence of non-specific reaction products. […]

ICAM-1 [5] = experiment: ICAM-1 gene expression (mRNA, real-time PCR) in keratinocytes stressed with LPS; format: cell-based, human; conditions: keratinocytes stressed with 10 μg/ml LPS 24 h: LPS alone, or with 30 μM calpain
Description: as §1
as §2, with “The cells were pretreated with 0.1% AV119 for 24 h and successively with 10 μg/ml of LPS for 24 h.” left out
as §3
Total RNA was extracted with the High Pure RNA Isolation Kit (Roche Diagnostics) according to the manufacturer's recommendations. […] The melting curve was analyzed at the end of each amplification to ensure the absence of non-specific reaction products. Quantification rests on the measure of threshold cycles (CT), which are measured at the beginning of the exponential phase of the reaction and on the normalization of the internal standard curve obtained with the reference gene beta-actin.

IL-1α [6] = experiment: IL-1α gene expression (mRNA, real-time PCR) in keratinocytes stressed with LPS; format: cell-based, human; conditions: keratinocytes stressed with 10 μg/ml LPS 24 h: LPS alone, or pretreated with 0.1% AV119 24 h, or with 30 μM calpain
Description: as §1, §2, §3, §5

TNF-α [7] = experiment: TNF-α gene expression (mRNA, real-time PCR) in keratinocytes stressed with LPS; format: cell-based, human; conditions: keratinocytes stressed with 10 μg/ml LPS 24 h: LPS alone, or pretreated with 0.1% AV119 24 h, or with 30 μM calpain
Description: as §1, §2, §3, §5

IL-1α [8] = experiment: IL-1α protein production (ELISA) in keratinocytes stressed with LPS; format: cell-based, human; conditions: keratinocytes stressed with 10 μg/ml LPS 24 h: LPS alone, or pretreated with 0.1% AV119 24 h, or with 30 μM calpain; culture supernatant
Description: as §1, §2, §3, §4

[9] = system: IκB phosphorylation / transcription factor NFκB; experiment: IκB phosphorylation (Western blot) as measure of NFκB activation in keratinocytes stressed with LPS; format: cell-based, human; conditions: keratinocytes stressed with 10 μg/ml LPS; pretreated with 0.1% AV119 or 30 μM calpain
Description: as §1, §2, §3
Proteins were extracted from the keratinocytes by cold homogenization in lysis buffer (50 mM HEPES pH 7.5, 150 mM NaCl, 1% glycerol, 1% Triton, 1.5 mM MgCl2, 5 mM EGTA) supplemented with 20 mM sodium pyrophosphate, 10 mM sodium orthovanadate and 25 mM NaF and protease inhibitors (aprotinin, phenylmethanesulfonyl fluoride (PMSF)). Protein level was quantified by the Bradford method. […]

IL-8 [10] = experiment: IL-8 gene expression (mRNA, real-time PCR) in keratinocytes stressed with LPS; format: cell-based, human; conditions: keratinocytes stressed with 10 μg/ml LPS 24 h: LPS alone, or pretreated with 0.1% AV119 24 h, or with 30 μM calpain
Description: as §1, §2, §3, §5

TNF-α [11] = experiment: TNF-α protein production (ELISA) in keratinocytes stressed with LPS; format: cell-based, human; conditions: keratinocytes stressed with 10 μg/ml LPS 24 h: LPS alone, or pretreated with 0.1% AV119 24 h, or with 30 μM calpain; culture supernatant
Description: as §1, §2, §3, §4

IL-8 [12] = experiment: IL-8 release (ELISA) by keratinocytes stressed with PMA; format: cell-based, human
Description: (§6) We evaluated the capacity to modulate the inflammatory response of the avocado sugars obtained according to Example 1, hereafter called AV119, in human primary keratinocytes stressed with PMA (phorbol myristic acetate).
(§7) At day 0 (D0), normal human epidermal keratinocytes (NHEK) are seeded in hydrocortisone-free KGM2 medium.
(§8) At subconfluence (at D1), the NHEK are rinsed with PBS and then pretreated with 0.005% and 0.05% avocado sugars AV119 or 0.1 μM dexamethasone (positive control) (Sigma, product D4902) in hydrocortisone-free KGM2 medium.
(§9) Twenty-four hours later, the NHEK are treated overnight with 10 μg/ml PMA (phorbol myristate acetate).
(§10) After incubation, the culture supernatants are collected and stored at −80° C. awaiting the cytokine (IL-1β, TNF-α, IL-8) ELISA (R&D Systems kits).
(§11) In parallel, the number of living cells is determined by a neutral red test.
(§12) The quantity of cytokine assayed for each condition (concentration in pg/ml, or OD450) is reduced to the number of living cells by dividing by the OD540 value obtained at the end of the neutral red test.
(§13) The results are compared statistically using a one way ANOVA followed by a Tukey's test.

IL-1β = IL-1β release (ELISA) by keratinocytes stressed with PMA; format: cell-based, human
Description: as §6, §7, §8, §9, §10, §11, §12, §13

TNF-α [13] = experiment: TNF-α release (ELISA) by keratinocytes stressed with PMA; format: cell-based, human
Description: as §6, §7, §8, §9, §10, §11, §12, §13

[14] = system: tumor cells of Ehrlich's ascites carcinoma; conditions: perseitol associated with a potassium ion; Shibuya et al., Pure Appl. Chem. 1999; cited from earlier work
[15] = 0.1 μM dexamethasone, in relation to PMA
[16] = NHEK pretreated 24 h with 0.1 μM dexamethasone, then 10 μg/ml PMA overnight
[17] = NHEK, 10 μg/ml PMA overnight, PMA alone
[18] = PMA 10 μg/ml alone, increase in relation to the untreated control (without PMA)

lipopolysaccharide [LPS]
IL-8 protein production (ELISA) (IL-8 [1]): 85
IL-6 protein production (ELISA) (IL-6 [2]): 76
ICAM-1 protein production (ELISA) (ICAM-1 [3]): 85
IL-6 gene expression (mRNA, real-time PCR) (IL-6 [4]): 54.5
ICAM-1 gene expression (mRNA, real-time PCR) (ICAM-1 [5]): 53.2
IL-1α gene expression (mRNA, real-time PCR) (IL-1α [6]): 71.5
TNF-α gene expression (mRNA, real-time PCR) (TNF-α [7]): 68.0
IL-1α protein production (ELISA) (IL-1α [8]): 82
IκB phosphorylation (activation of transcription factor NFκB), Western blot [9]: strongly induced IκB phosphorylation
IL-8 gene expression (mRNA, real-time PCR) (IL-8 [10]): 54.1
TNF-α protein production (ELISA) (TNF-α [11]): 96.0

C[C@@H]1C[C@H]2[C@@H]3CCC4=CC(=O)C=C[C@]4(C)[C@@]3(F)[C@@H](O)C[C@]2(C)[C@@]1(O)C(=O)CO [Dexamethasone, dexamethasone]
IL-8 release, % in relation to the control (IL-8 [12]; [15]): −55%
IL-8 pg/ml/OD450 (mean ± SD) (IL-8 [12]; [16]): 0.790 ± 0.089 pg/ml/OD450
IL-1β release, % in relation to the control (IL-1β; [15]): −70%
IL-1β pg/ml/OD450 (mean ± SD) (IL-1β; [16]): 3.232 ± 0.329 pg/ml/OD450
TNF-α release, % in relation to the control (TNF-α [13]; [15]): −44%
TNF-α pg/ml/OD450 (mean ± SD) (TNF-α [13]; [16]): 0.328 ± 0.007 pg/ml/OD450

CCCCCCCCCCCCCC(=O)O[C@@H]1[C@@H](C)[C@@]2(O)[C@@H](C=C(CO)C[C@]3(O)C(=O)C(C)=C[C@@H]23)[C@@H]2C(C)(C)[C@]12OC(C)=O [PMA, phorbol myristate acetate]
IL-8 pg/ml/OD450 (mean ± SD) (IL-8 [12]; [17]): 1.765 ± 0.305 pg/ml/OD450
IL-8 release, % in relation to the control (IL-8 [12]; [18]): 1017%
IL-1β pg/ml/OD450 (mean ± SD) (IL-1β; [17]): 10.930 ± 0.190 pg/ml/OD450
IL-1β release, % in relation to the control (IL-1β; [18]): 1399%
TNF-α pg/ml/OD450 (mean ± SD) (TNF-α [13]; [17]): 0.584 ± 0.079 pg/ml/OD450
TNF-α release, % in relation to the control (TNF-α [13]; [18]): 1091%

OCC(O)C(O)C(O)C(O)C(O)CO (stereo not drawn) [perseitol, Perseitol]
incorporation of 3H-leucine in tumor cells [14]: inhibits the incorporation of 3H-leucine
